From US20090312406A1, “COUMARIN COMPOUNDS AND THEIR USE FOR TREATING VIRAL INFECTION” (priority 2008, published 2009)
Where two headings read alike, the source gives them in different places.

How the values were obtained:
Human rhinovirus 2 = assay: In vitro human rhinovirus 2 neutralization assay, cytopathic effect on RD cells; type: cell-based; conditions: Rhinovirus A
Method: (§1) This assay measured the ability of a test compound to inhibit the cytopathic effect induced by a picornavirus (EV71, Coxsackie Virus B3, or human rhinovirus 2) on RD cells. The method used for this assay is described in Chang et al., J Med Chem, 2005, 48(10), 3522-3535. More specifically, 96-well tissue culture plates were seeded with 200 μL of RD cells at a concentration of 3×10^5 cells/mL in DMEM with 10% FBS. The plates were incubated for 24-30 h at 37° C. and were used at about 90% confluency. Virus (100 TCID50) mixed with different concentrations of a test compound was added to the cells and incubated at 37° C. for 1 h. After adsorption, the infected cell plates were overlaid with 50 μL of DMEM plus 5% FBS and 2% DMSO. The plate was wrapped in Parafilm and incubated at 37° C. for 64 h. At the end of incubation, the plates were fixed by the addition of 100 μL of 0.5% glutaraldehyde for 1 h at room temperature. After the removal of glutaraldehyde, the plates were stained with 0.1% crystal violet for 15 min at room temperature. The plates were washed and dried, and the density of the well was measured at 570 nm. The concentration required for a test compound to reduce the virus-induced cytopathic effect (CPE) by 50% relative to the virus control is expressed as IC50.

Influenza B/TW/710/05 = assay: Anti-influenza CPE neutralization test on MDCK cells; type: cell-based; conditions: Influenza B virus, Influenza B/TW/710/05, CPE
Method: (§2) Anti-influenza activities of the coumarin compounds were evaluated by measuring the ability of a test compound to inhibit the cytopathic effect induced by an influenza virus on MDCK cells. The 96-well tissue culture plates were seeded with 200 μL of MDCK cells at a concentration of 1.1×10^5 cells/mL in DMEM with 10% fetal bovine serum (FBS). The plates were incubated for 24-30 h at 37° C. and were used at about 90% confluency. Influenza A/WSN/33 (H1N1) virus (100 TCID50) was added to the cells and incubated at 35° C. for 1 h. After adsorption, the infected cell plates were overlaid with 50 μL of DMEM plus 2% FBS and a test compound with different concentrations. The plate was incubated at 35° C. for 72 h. At the end of incubation, the plates were fixed by the addition of 100 μL of 4% formaldehyde for 1 h at room temperature. After the removal of formaldehyde, the plates were stained with 0.1% crystal violet for 15 min at room temperature. The plates were washed and dried, and the density of the well was measured at 570 nm. The concentration required for a test compound to reduce the virus-induced cytopathic effect (CPE) by 50% relative to the virus control was expressed as IC50.
(§3) Compounds 1 and 95 were also tested on various influenza virus strains. Amantadine or Relenza was also tested for comparison. IC50 is defined as the concentration required for a test compound to reduce the virus-induced cytopathic effect (CPE) by 50% relative to the virus control.

Influenza B/TW/70325/05 = assay: as above; type: cell-based; conditions: Influenza B virus, Influenza B/TW/70325/05, CPE
Method: as §2, §3

Influenza B/TW/99/07 = assay: as above; type: cell-based; conditions: Influenza B virus, Influenza B/TW/99/07, CPE
Method: as §2, §3

[1] = system: Influenza A/TW/83/05 (H3N2); assay: as above; type: cell-based; conditions: Influenza A virus
Method: as §2, §3

[2] = system: Influenza A/TW/785/05 (H1N1); assay: as above; type: cell-based; conditions: Influenza A virus
Method: as §2, §3

[3] = system: Influenza A/Udorn/72 (H3N2); assay: as above; type: cell-based; conditions: Influenza A virus
Method: as §2, §3

Enterovirus 71 (4643) = assay: In vitro EV 71 neutralization assay, cytopathic effect on RD cells; type: cell-based; conditions: Enterovirus A
Method: as §1

Coxsackie B virus 3 = assay: In vitro Coxsackie Virus B3 neutralization assay, cytopathic effect on RD cells; type: cell-based; conditions: Coxsackie B virus 3, RD cells, CPE
Method: as §1

[4] = system: Influenza A/WSN/33 (H1N1) virus; assay: In vitro anti-influenza virus assay (neutralization test), cytopathic effect on MDCK cells; type: cell-based
HIV-1 = assay: Inhibition of HIV-1 replication in peripheral blood mononuclear cells, viral RNA by real-time PCR; conditions: Human immunodeficiency virus 1, PBMC
Method: Equal amounts of wild-type and mutant viruses were used to infect 5×10^4 peripheral blood mononuclear cells (PBMC) in 1.5 mL medium containing DMSO or various concentrations of a test compound. A half-milliliter of the culture medium was collected from each culture at days 3, 5, and 7. Viral RNA was extracted from the collected culture supernatants and the viral titers (copies/mL) were determined by real-time PCR. The percentage of inhibition was calculated as [100−(VD/VC)]×100%, where VD and VC refer to the virus titers in the presence and absence of the test compound, respectively.

EBV = assay: In vitro EBV assay, EBV reactivation in NA cells by anti-EBV-EAD immunofluorescence; type: cell-based, Epstein-Barr virus (EBV); conditions: human gammaherpesvirus 4; EBV reactivation by TPA/SB in NA cells, compound added 24 h before; read-out: EC50 (concentration reducing 50% of virus replication numbers)
Method: The method used for this assay is described in Chang et al., J Virol, 1999, 73, 8857-8866 and Tsai et al., J Virol Methods, 1991, 33, 47-52.
To suppress EBV reactivation, a test compound was added to the NA cell culture medium at indicated final concentration 24 h prior to 12-o-tetradecanoylphorbol-13-acetate (TPA)/sodium n-butyrate (SB) treatment. After treatment, the cells were fixed and assayed by anti-EBV-EAD immunofluorescence for detection of EBV reactivation. […] NA cells were subjected to treatment with the test compound 24 h prior to the addition of TPA/SB. […] Cells were stained with anti-EBV EAD antibody. […] The minimal concentration of the test compound required to reduce 50% of virus replication numbers (EC50) was calculated from regression analysis of the dose-response curves obtained from anti-EBV-EAD immunofluorescence.

HSV-1 = assay: In vitro HSV-1 plaque reduction assay in Vero cells (Example 5); type: cell-based; conditions: Human alphaherpesvirus 1; HSV-1, Vero cells, 72 h; read-out: EC50 (concentration reducing 50% of plaque numbers)
Method: The method used for this assay is described in Su et al., Antiviral Res., 2008, 79(1), 62-70.
Vero cells were seeded onto a 96-well culture plate at a concentration of 10^4 cells per well one day before infection. Next day, medium was removed and 10 plaque forming unit (pfu) HSV-1 suspension per well were added and incubated at 37° C. with 5% CO2 for 1 h. The infected cell monolayer was then washed with phosphate buffered saline (PBS) and cultured in maintenance medium containing 1 μM of compounds. After 72 h of incubation at 37° C., cell monolayer was fixed with 10% formalin and stained with 1% crystal violet.
Plaque assays were performed with monolayer cultures of Vero cells in 24-well culture plates. For plaque reduction assay, cell monolayer was infected with virus (50 pfu/well) and incubated at 37° C. with 5% CO2 for 1 h. The infected cell monolayer was then washed three times with PBS and overlaid with overlapping solution (maintenance medium containing 1% methylcellulose and various concentrations of indicated compounds). After 72 h of incubation at 37° C., cell monolayer was fixed with 10% formalin and stained with 1% crystal violet. […] The minimal concentration of compounds required to reduce 50% of plaque numbers (EC50) was calculated by regression analysis of the dose-response curves generated from plaque assays.

[5] = Cytotoxicity (CC50) of the compounds tested in the anti-HSV assay; type: cell-based; conditions: African green monkey, Vero cells; Table 5; read-out: CC50 (μM), 50% cytotoxicity concentration
[6] = system: Influenza A/TW/141/04 (H1N1); assay: Anti-influenza CPE neutralization test on MDCK cells; type: cell-based; conditions: Influenza A virus
Method: as §2, §3

[7] = system: Influenza A/TW/3446/04 (H3N2); assay: as above; type: cell-based; conditions: Influenza A virus
Method: as §2, §3

[8] = system: herpes simplex virus type 1; assay: In vitro assessment of anti-HSV activity, plaque reduction assay in Vero cells (Example 8); type: cell-based
Method: Anti-HSV activities of compounds described herein were evaluated by performing a plaque reduction assay using monolayer cultures of Vero cells in 24-well culture plates. A cell monolayer was infected with herpes simplex virus type 1 (50 pfu/well) and incubated at 37° C. with 5% CO2 for 1 h. The infected cell monolayer was then washed three times with PBS and overlaid with a solution (maintenance medium containing 1% methylcellulose and various concentrations of a test compound). After 72 h of incubation at 37° C., the cell monolayer was fixed with 10% formalin and stained with 1% crystal violet. […] The minimal concentration of a compound required to reduce 50% of plaque numbers (EC50) was calculated by regression analysis of the dose-response curves generated from the plaque assay.

[9] = MDCK, CPE, Table 2, read-out: IC50
[10] = 72 h, read-out: Inhibition (%) Day 3
[11] = 120 h, read-out: Inhibition (%) Day 5
[12] = 168 h, read-out: Inhibition (%) Day 7
[13] = Human rhinovirus 2, RD cells, CPE, read-out: IC50
[14] = Enterovirus 71 (4643), RD cells, CPE, read-out: IC50
[15] = MDCK cells, 72 h, lower bound (10 nM), upper in μM, read-out: IC50 (concentration reducing virus-induced cytopathic effect by 50%)

Row | Compound | IC50 (Influenza B/TW/710/05) | IC50 (Influenza B/TW/70325/05) | IC50 (Influenza B/TW/99/07) | IC50 [1] | IC50 [2] | IC50 [3] | IC50 (Coxsackie B virus 3) | IC50 [4, 9] | inhibition at 0.1 µM (HIV-1; [10]) | inhibition at 0.1 µM (HIV-1; [11]) | inhibition at 0.1 µM (HIV-1; [12]) | IC50 (Human rhinovirus 2; [13]) | IC50 (Enterovirus 71 (4643); [14]) | IC50 [4, 15] | IC50 [6] | IC50 [7] | other results
1 | NC12CC3CC(CC(C3)C1)C2 [Amantadine] | > 25 µM | > 25 µM | > 25 µM | > 25 µM | 0.382 ± 0.238 µM | 0.98 ± 0.147 µM | > 25 µM | > 25000 nM | – | – | – | – | – | – | – | – | IC50 (Human rhinovirus 2; RD): > 25 µM; IC50 (Enterovirus 71 (4643); RD): > 25 µM
2 | Cc1cc(=O)oc2c1ccc1oc(C(=O)c3ccccc3)c(-c3ccccc3)c12 [Compound 1, 8-benzoyl-4-methyl-9-phenyl-furo[2,3-h]chromen-2-one] | 0.102 ± 0.02 µM | 0.067 ± 0.002 µM | 0.089 ± 0.014 µM | 0.057 ± 0.006 µM | 0.052 ± 0.001 µM | 0.347 ± 0.188 µM | 0.005 ± 0.001 µM | 119 ± 43 nM | 2% | 82% | 91% | 0.012 ± 0.001 µM | 0.002 ± 0.001 µM | 10 to 999 nM | – | – | EC50 (EBV): < 0.5 µM; EC50 (HSV-1): ~0.5 µM
3 | Cc1cc(=O)oc2c1ccc1oc(C(=O)c3cccs3)c(-c3ccccc3)c12 [Compound 95] | 0.09 ± 0.01 µM | 0.09 ± 0.01 µM | 0.04 ± 0.01 µM | – | – | – | – | 70 ± 10 nM | 42% | 89% | 99% | – | – | 10 to 999 nM | 0.09 ± 0.01 µM | 0.15 ± 0.01 µM | CC50 [5]: > 100 µM; SI, selectivity index = CC50/EC50 ([8]; CC50/EC50, HSV-1): >1666.666; EC50 ([8]; Human alphaherpesvirus 1, herpes simplex virus type 1, Vero cells, plaque reduction, 72 h, read-out: EC50 (μM), 50% effective concentration): 0.06 µM
4 | CC(=O)N[C@H]1[C@H]([C@H](O)[C@H](O)CO)OC(C(=O)O)=C[C@@H]1N=C(N)N [Relenza, Zanamivir, reference compound] | 0.03 ± 0.019 µM | 0.02 ± 0.01 µM | 0.099 ± 0.009 µM | 0.918 ± 0.026 µM | 1.06 ± 0.982 µM | 0.67 ± 0.232 µM | > 25 µM | 62 ± 18 nM | – | – | – | > 25 µM | > 25 µM | – | 0.35 ± 0.14 µM | 0.03 ± 0.01 µM | –
